Assay results taken from PubChem BioAssay (NCI).
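Each compound was tested at five concentrations against cells in 96-well plates for 48 hours. TGI denotes the concentration required for complete inhibition of growth.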

Experiments:
Test in all cases: NCI tumour cell line growth inhibition, 48 h
EKVX NSCLC = test system: EKVX NSCLC
T-47D breast = test system: T-47D breast
DU-145 prostate = test system: DU-145 prostate
UACC-62 melanoma = test system: UACC-62 melanoma
LOX IMVI melanoma = test system: LOX IMVI melanoma
SNB-19 CNS = test system: SNB-19 CNS
MDA-N = test system: MDA-N
SNB-75 CNS = test system: SNB-75 CNS
RXF 393 renal = test system: RXF 393 renal
OVCAR-5 ovarian = test system: OVCAR-5 ovarian
NCI-H522 lung = test system: NCI-H522 lung

| SMILES | TGI (EKVX NSCLC) | TGI (T-47D breast) | TGI (DU-145 prostate) | TGI (UACC-62 melanoma) | TGI (LOX IMVI melanoma) | TGI (SNB-19 CNS) | TGI (MDA-N) | TGI (SNB-75 CNS) | TGI (RXF 393 renal) | TGI (OVCAR-5 ovarian) | TGI (NCI-H522 lung) |
| --- | --- | --- | --- | --- | --- | --- | --- | --- | --- | --- | --- |
| S=C(Cc1ccc2c(c1)Sc1ccccc1O2)N1CCOCC1 | > 100 µM | > 100 µM | > 100 µM | > 100 µM | > 100 µM | > 100 µM | > 100 µM | 60.6 µM | > 100 µM | > 100 µM | – |
| O=C(CCc1cc(O)cc(O)c1)NCCc1cc(OCc2ccccc2)cc(OCc2ccccc2)c1 | 22.6 µM | 39.3 µM | 33.5 µM | 40.2 µM | 32 µM | 7.17 µM | 35 µM | 24.5 µM | 27.4 µM | 39.5 µM | 28.2 µM |
| C[C@@H]1CC[C@@]2(C)C(C(=O)O)=CCCC2[C@@]1(C)CC(=O)c1ccoc1 (stereo not given in full) | > 25 µM | > 25 µM | > 25 µM | > 25 µM | > 25 µM | > 25 µM | > 25 µM | > 25 µM | > 25 µM | > 25 µM | > 25 µM |
| O=C(O)c1nc2ccc(C(F)(F)F)cc2[nH]c1=O | > 100 µM | > 100 µM | > 100 µM | > 100 µM | > 100 µM | > 100 µM | > 100 µM | – | > 100 µM | > 100 µM | > 100 µM |
| O=C(COc1ccc(OCC(=O)N/N=C/c2ccc(-c3ccc(Cl)cc3Cl)o2)c(Cl)c1)N/N=C/c1ccc(-c2ccc(Cl)cc2Cl)o1 | 89.5 µM | > 100 µM | > 100 µM | > 100 µM | > 100 µM | > 100 µM | > 100 µM | – | 81.2 µM | > 100 µM | > 100 µM |
| Cc1ccc2c(c1C)C(=O)C1(Cc3cc4c(cc3C1=O)CCC4)C2 (stereo not given) | > 100 µM | > 100 µM | > 100 µM | > 100 µM | – | > 100 µM | > 100 µM | > 100 µM | > 100 µM | > 100 µM | > 100 µM |
| CCOC(=O)c1c(N2CCCC2)[nH]c(=O)c(C(c2ccc(OC)cc2)c2c(O)c(C(=O)OCC)c(N3CCCC3)[nH]c2=O)c1O | > 100 µM | > 100 µM | > 100 µM | > 100 µM | > 100 µM | > 100 µM | > 100 µM | 69 µM | > 100 µM | > 100 µM | > 100 µM |
| O=c1[nH]c(NCc2ccncc2)nc2nc[nH]c12 | > 100 µM | > 100 µM | > 100 µM | > 100 µM | > 100 µM | > 100 µM | > 100 µM | > 100 µM | > 100 µM | > 100 µM | > 100 µM |
| CC1(C)CC(=O)C2=C(C1)C(c1ccccc1Cl)C1C(=O)CC(C)(C)CC1(O)O2 (stereo not given) | > 100 µM | > 100 µM | > 100 µM | > 100 µM | > 100 µM | > 100 µM | > 100 µM | > 100 µM | > 100 µM | > 100 µM | > 100 µM |
| O=c1c(F)cn2c(=O)n1CCCCCCCn1c(=O)c(F)cn(c1=O)CCCCCCC2 | > 100 µM | > 100 µM | 12.4 µM | > 100 µM | > 100 µM | > 100 µM | > 100 µM | 27 µM | > 100 µM | > 100 µM | > 100 µM |
| c1ccc(C2=NC3OC2c2ccccc23)cc1 (stereo not given) | > 10 µM | > 10 µM | > 10 µM | > 10 µM | > 10 µM | > 10 µM | > 10 µM | > 10 µM | > 10 µM | > 10 µM | > 10 µM |
| CN(/N=C1\C(=O)Nc2ccccc21)c1ccccc1 | > 100 µM | > 100 µM | > 100 µM | > 100 µM | > 100 µM | > 100 µM | > 100 µM | > 100 µM | – | > 100 µM | > 100 µM |
| [N-]=[N+]=CC(=O)C1CCCN1C(=O)c1ccccc1 (stereo not given) | > 10 µM | > 10 µM | > 10 µM | > 10 µM | > 10 µM | > 10 µM | > 10 µM | 8.26 µM | > 10 µM | > 10 µM | – |
| CCOC(=O)CSc1nc(N)c2c(-c3ccccc3)c3c(nc2n1)CCCC3 | > 100 µM | > 100 µM | > 100 µM | > 100 µM | > 100 µM | > 100 µM | > 100 µM | > 100 µM | > 100 µM | > 100 µM | > 100 µM |
| CC(=O)Nc1nc(Cl)cc(NCC2(CO)CCC2)n1 | > 100 µM | > 100 µM | > 100 µM | > 100 µM | > 100 µM | > 100 µM | > 100 µM | > 100 µM | > 100 µM | > 100 µM | > 100 µM |
| Cn1c2ccccc2c2ccc3c(c21)C(=O)c1ccc2c4ccccc4n(C)c2c1C3=O | > 100 µM | > 100 µM | > 100 µM | > 100 µM | > 100 µM | > 100 µM | > 100 µM | > 100 µM | > 100 µM | > 100 µM | > 100 µM |
| Cc1c(C)n(-c2ccccc2)c2nc(S(C)=O)nc(S(C)=O)c12 (stereo not given) | 22.8 µM | 8.62 µM | 27.5 µM | 20.1 µM | 4.15 µM | 31.3 µM | 13.6 µM | 23.3 µM | 14.4 µM | 28.9 µM | 4.59 µM |
| CN(C)CCn1c(=O)c2ccc(NCCCN(C)CCCNc3ccc4c(=O)n(CCN(C)C)c(=O)n5c6ccc(O)cc6c(=O)c3c45)c3c(=O)c4cc(O)ccc4n(c1=O)c23 | 0.929 µM | 10.2 µM | 0.655 µM | 0.215 µM | 0.0619 µM | 1.54 µM | 0.251 µM | 0.0627 µM | 0.215 µM | 1.15 µM | 0.0802 µM |
| O=c1c2c3c(sc2[nH]c(=S)n1-c1ccccc1)CCCc1ccc([N+](=O)[O-])cc1-3 | > 100 µM | 37.1 µM | > 100 µM | 85 µM | 62.2 µM | > 100 µM | > 100 µM | – | 38.7 µM | > 100 µM | 36.5 µM |
| COC(=O)/C=C(/C=C1/C(C#N)=C(N)N(c2ccc(Cl)cc2)C1(C)/C(=C\C(=O)OC)C(=O)OC)C(=O)OC (stereo not given) | > 100 µM | 39.5 µM | 89.2 µM | 27.4 µM | 32.4 µM | > 100 µM | 30.8 µM | 63.3 µM | 35.4 µM | 48.3 µM | 16.4 µM |
| COC(=O)c1ccccc1C1CN=NC12Cc1c(ccc(C)c1C)C2=O (stereo not given) | > 100 µM | > 100 µM | > 100 µM | > 100 µM | > 100 µM | > 100 µM | > 100 µM | 89.1 µM | > 100 µM | > 100 µM | > 100 µM |
| COc1ccc2nc(NC(=O)/C(C#N)=C/c3ccccc3)sc2c1 | > 100 µM | > 100 µM | > 100 µM | > 100 µM | > 100 µM | > 100 µM | > 100 µM | > 87.8 µM | > 100 µM | > 100 µM | 65.4 µM |
| CN1CSC(=S)N(c2cccc(C(F)(F)F)c2)C1 | 67.7 µM | > 100 µM | > 100 µM | 31.7 µM | 43.1 µM | 61 µM | 91.2 µM | > 100 µM | > 100 µM | 37 µM | 30.8 µM |
| Cc1ccc2cccc(-c3cccc4ccccc34)c2n1 | 84.9 µM | > 100 µM | > 100 µM | 61.9 µM | 31.3 µM | > 100 µM | 22.7 µM | 48.2 µM | 35.7 µM | 55.5 µM | 66.5 µM |
| O=c1oc2ccccc2c(O)c1Cc1ccc(Cc2c(O)c3ccccc3oc2=O)cc1 | > 100 µM | > 100 µM | > 100 µM | > 100 µM | > 100 µM | – | > 100 µM | > 100 µM | > 100 µM | > 100 µM | – |
| Cn1nc(-c2ccc(S(=O)(=O)/N=C(\NN)Nc3ccc(Cl)cc3)s2)cc1C(F)(F)F | 28.2 µM | 27.6 µM | 30.8 µM | 31.1 µM | 34.2 µM | 30.2 µM | 28 µM | 29.9 µM | 23.6 µM | 30.1 µM | – |
| Cc1nnc2n(c1=O)CCCN2C | > 100 µM | > 100 µM | > 100 µM | > 100 µM | > 100 µM | > 100 µM | > 100 µM | > 100 µM | > 100 µM | > 100 µM | – |
| CO/N=C1\CC(NC(=O)C(F)(F)F)c2ccsc21 (stereo not given) | > 100 µM | > 100 µM | > 100 µM | > 100 µM | > 100 µM | – | > 100 µM | > 100 µM | > 100 µM | > 100 µM | – |
| COc1cccc(C2c3cc4c(cc3OC(O)C2C)OCO4)c1OC (stereo not given) | 78.7 µM | 40.7 µM | 26.2 µM | 44.7 µM | 23.5 µM | 74.2 µM | 58.3 µM | 32.4 µM | 23.5 µM | 60.9 µM | – |
| COc1ccc2c(c1)c1c(n2CCN2CCCCC2)-c2cccc(OC)c2CC1 | 42 µM | 47.2 µM | > 100 µM | 32.9 µM | 38.7 µM | 29.7 µM | 35 µM | 46.1 µM | – | 32.8 µM | 18.8 µM |
